# Tested on: patients with treatment-resistant major depressive disorder (TRD)
# Test: Phase 1/2 clinical trial of inhaled 5-MeO-DMT in TRD (MADRS, BPRS, safety)
# Details: for patients experiencing at least one ADR: n=4, all ADRs mild and resolved spontaneously
# Protocol: Patients were assigned to different groups. In the context of the present invention, the group who received a single, 12 mg dose and the group who underwent an intra-day individualized dosing regimen (IDR) that allowed for multiple, escalating doses (6 mg, 12 mg and 18 mg) within a single day, driven by the intensity of the patient-reported psychedelic experience are of interest.
# The data gathered include the assessment of the treated patients against several scales including the Montgomery-Åsberg Depression Rating Scale (MADRS) and the Brief Psychiatric Rating Scale (BPRS).
# This trial was designed in two parts. Part A was an open-label, single-arm, single-dose Phase 1 trial with two dose levels (12 mg (n=4) and 18 mg (n=4)). […] The primary endpoint of Part B was to assess the effects on the severity of depression, as assessed by the proportion of patients in remission on day seven after dosing, defined as a MADRS total score of less than or equal to 10.
# [1] = TRD, IDR 6/12/18 mg inhaled, sum n=8, 2 h after last dose, baseline 26
# [2] = TRD, IDR 6/12/18 mg inhaled, sum n=8, 2 h after last dose, baseline 28
# [3] = TRD, IDR 6/12/18 mg inhaled, sum n=8, 3 h after last dose, baseline 37
# [4] = TRD, IDR 6/12/18 mg inhaled, sum n=8, day 1, baseline 25
# [5] = TRD, IDR 6/12/18 mg inhaled, sum n=8, day 1, baseline 26
# [6] = TRD, IDR 6/12/18 mg inhaled, sum n=8, day 1, baseline 37
# [7] = TRD, IDR 6/12/18 mg inhaled, sum n=8, day 7, baseline 25
# [8] = TRD, IDR 6/12/18 mg inhaled, sum n=8, day 7, baseline 26
# [9] = TRD, IDR 6/12/18 mg inhaled, sum n=8, day 7, baseline 30
# [10] = TRD, IDR 6/12/18 mg inhaled, sum n=8, day 7, baseline 37
# [11] = TRD, single 12 mg inhaled, sum n=4, 2 h after dose, baseline 13
# [12] = TRD, single 12 mg inhaled, sum n=4, 2 h after dose, baseline 16
# [13] = TRD, single 12 mg inhaled, sum n=4, 3 h after dose, baseline 18
# [14] = TRD, single 12 mg inhaled, sum n=4, 3 h after dose, baseline 25
# [15] = TRD, single 12 mg inhaled, sum n=4, day 1, baseline 12
# [16] = TRD, single 12 mg inhaled, sum n=4, day 1, baseline 13
# [17] = TRD, single 12 mg inhaled, sum n=4, day 1, baseline 16
# [18] = TRD, single 12 mg inhaled, sum n=4, day 1, baseline 25
# [19] = TRD, single 12 mg inhaled, sum n=4, day 7, baseline 12
# [20] = TRD, single 12 mg inhaled, sum n=4, day 7, baseline 13
# [21] = TRD, single 12 mg inhaled, sum n=4, day 7, baseline 16
# [22] = TRD, single 12 mg inhaled, sum n=4, day 7, baseline 25
smiles,measurement,setting,value
COc1ccc2[nH]cc(CCN(C)C)c2c1 [5-MeO-DMT],patients experiencing at least one ADR,"Part A, single 12 mg inhaled",3 of 4
same,SAEs,"Part A, single 12 mg or 18 mg inhaled",No SAEs were reported
same,patients experiencing at least one ADR,"Part A, single 18 mg inhaled",3 of 4
same,SAEs,"Part B, IDR 6/12/18 mg inhaled, n=8",No SAEs were reported
same,MADRS Suicidal Thoughts score,"TRD, IDR 6/12/18 mg inhaled, sum n=8, 2 h after last dose, baseline 11",3
same,MADRS Inner Tension percentage improvement,[1],58%
same,MADRS Inner Tension score,[1],11
same,MADRS Lassitude score,"TRD, IDR 6/12/18 mg inhaled, sum n=8, 2 h after last dose, baseline 27",10
same,MADRS Pessimistic Thoughts percentage improvement,[2],75.00%
same,MADRS Pessimistic Thoughts score,[2],7
same,MADRS Concentration Difficulties score,"TRD, IDR 6/12/18 mg inhaled, sum n=8, 2 h after last dose, baseline 30",11
same,MADRS Inability to Feel score,"TRD, IDR 6/12/18 mg inhaled, sum n=8, 2 h after last dose, baseline 36",12
same,BPRS Emotional Withdrawal score,"TRD, IDR 6/12/18 mg inhaled, sum n=8, 3 h after last dose, baseline 13",8
same,BPRS Blunted Affect score,"TRD, IDR 6/12/18 mg inhaled, sum n=8, 3 h after last dose, baseline 15",11
same,BPRS Tension score,"TRD, IDR 6/12/18 mg inhaled, sum n=8, 3 h after last dose, baseline 16",11
same,BPRS Guilt Feelings score,"TRD, IDR 6/12/18 mg inhaled, sum n=8, 3 h after last dose, baseline 34",14
same,BPRS Anxiety percentage improvement,[3],49%
same,BPRS Anxiety score,[3],19
same,MADRS Suicidal Thoughts score,"TRD, IDR 6/12/18 mg inhaled, sum n=8, day 1, baseline 11",1
same,BPRS Emotional Withdrawal score,"TRD, IDR 6/12/18 mg inhaled, sum n=8, day 1, baseline 13",8
same,BPRS Blunted Affect score,"TRD, IDR 6/12/18 mg inhaled, sum n=8, day 1, baseline 15",8
same,BPRS Tension score,"TRD, IDR 6/12/18 mg inhaled, sum n=8, day 1, baseline 16",11
same,MADRS Reduced Sleep percentage improvement,[4],52%
same,MADRS Reduced Sleep score,[4],12
same,MADRS Inner Tension percentage improvement,[5],77%
same,MADRS Inner Tension score,[5],6
same,MADRS Lassitude score,"TRD, IDR 6/12/18 mg inhaled, sum n=8, day 1, baseline 27",5
same,MADRS Pessimistic Thoughts score,"TRD, IDR 6/12/18 mg inhaled, sum n=8, day 1, baseline 28",4
same,MADRS Concentration Difficulties score,"TRD, IDR 6/12/18 mg inhaled, sum n=8, day 1, baseline 30",1
same,BPRS Guilt Feelings score,"TRD, IDR 6/12/18 mg inhaled, sum n=8, day 1, baseline 34",11
same,MADRS Inability to Feel score,"TRD, IDR 6/12/18 mg inhaled, sum n=8, day 1, baseline 36",2
same,BPRS Anxiety percentage improvement,[6],57%
same,BPRS Anxiety score,[6],16
same,MADRS Suicidal Thoughts score,"TRD, IDR 6/12/18 mg inhaled, sum n=8, day 7, baseline 11",3
same,BPRS Emotional Withdrawal score,"TRD, IDR 6/12/18 mg inhaled, sum n=8, day 7, baseline 13",8
same,BPRS Blunted Affect score,"TRD, IDR 6/12/18 mg inhaled, sum n=8, day 7, baseline 15",8
same,BPRS Tension score,"TRD, IDR 6/12/18 mg inhaled, sum n=8, day 7, baseline 16",10
same,MADRS Reduced Sleep percentage improvement,[7],64%
same,MADRS Reduced Sleep score,[7],9
same,MADRS Inner Tension percentage improvement,[8],54%
same,MADRS Inner Tension score,[8],12
same,MADRS Lassitude score,"TRD, IDR 6/12/18 mg inhaled, sum n=8, day 7, baseline 27",3
same,MADRS Pessimistic Thoughts score,"TRD, IDR 6/12/18 mg inhaled, sum n=8, day 7, baseline 28",3
same,MADRS Concentration Difficulties percentage improvement,[9],70.00%
same,MADRS Concentration Difficulties score,[9],9
same,BPRS Guilt Feelings score,"TRD, IDR 6/12/18 mg inhaled, sum n=8, day 7, baseline 34",10
same,MADRS Inability to Feel score,"TRD, IDR 6/12/18 mg inhaled, sum n=8, day 7, baseline 36",6
same,BPRS Anxiety percentage improvement,[10],54%
same,BPRS Anxiety score,[10],17
same,MADRS Suicidal Thoughts score,"TRD, single 12 mg inhaled, sum n=4, 2 h after dose, baseline 8",3
same,MADRS Inner Tension percentage improvement,[11],85%
same,MADRS Inner Tension score,[11],2
same,MADRS Concentration Difficulties score,[12],7
same,MADRS Inability to Feel score,[12],9
same,MADRS Lassitude score,[12],10
same,MADRS Pessimistic Thoughts percentage improvement,[12],50.00%
same,MADRS Pessimistic Thoughts score,[12],8
same,BPRS Blunted Affect score,"TRD, single 12 mg inhaled, sum n=4, 3 h after dose, baseline 11",8
same,BPRS Emotional Withdrawal score,"TRD, single 12 mg inhaled, sum n=4, 3 h after dose, baseline 13",11
same,BPRS Tension score,"TRD, single 12 mg inhaled, sum n=4, 3 h after dose, baseline 14",9
same,BPRS Guilt Feelings percentage improvement,[13],50.00%
same,BPRS Guilt Feelings score,[13],9
same,BPRS Anxiety percentage improvement,[14],56%
same,BPRS Anxiety score,[14],11
same,MADRS Suicidal Thoughts score,"TRD, single 12 mg inhaled, sum n=4, day 1, baseline 8",5
same,BPRS Blunted Affect score,"TRD, single 12 mg inhaled, sum n=4, day 1, baseline 11",6
same,MADRS Reduced Sleep percentage improvement,[15],17%
same,MADRS Reduced Sleep score,[15],10
same,BPRS Emotional Withdrawal score,[16],8
same,MADRS Inner Tension percentage improvement,[16],77%
same,MADRS Inner Tension score,[16],3
same,BPRS Tension score,"TRD, single 12 mg inhaled, sum n=4, day 1, baseline 14",6
same,MADRS Concentration Difficulties score,[17],2
same,MADRS Inability to Feel score,[17],1
same,MADRS Lassitude percentage improvement,[17],100.00%
same,MADRS Lassitude score,[17],0
same,MADRS Pessimistic Thoughts score,[17],7
same,BPRS Guilt Feelings score,"TRD, single 12 mg inhaled, sum n=4, day 1, baseline 18",5
same,BPRS Anxiety percentage improvement,[18],76%
same,BPRS Anxiety score,[18],6
same,MADRS Suicidal Thoughts score,"TRD, single 12 mg inhaled, sum n=4, day 7, baseline 8",7
same,BPRS Blunted Affect score,"TRD, single 12 mg inhaled, sum n=4, day 7, baseline 11",5
same,MADRS Reduced Sleep percentage improvement,[19],50%
same,MADRS Reduced Sleep score,[19],6
same,BPRS Emotional Withdrawal score,[20],6
same,MADRS Inner Tension percentage improvement,[20],62%
same,MADRS Inner Tension score,[20],5
same,BPRS Tension score,"TRD, single 12 mg inhaled, sum n=4, day 7, baseline 14",6
same,MADRS Concentration Difficulties score,[21],3
same,MADRS Inability to Feel score,[21],1
same,MADRS Lassitude score,[21],3
same,MADRS Pessimistic Thoughts percentage improvement,[21],50.00%
same,MADRS Pessimistic Thoughts score,[21],8
same,BPRS Guilt Feelings score,"TRD, single 12 mg inhaled, sum n=4, day 7, baseline 18",5
same,BPRS Anxiety percentage improvement,[22],76%
same,BPRS Anxiety score,[22],6

# Reference: US20250241891A1, “TREATMENT OF ANXIETY” (GH RESEARCH IRELAND LIMITED, priority 2022, published 2025)
